Entries after “also recorded” stand apart in the source; their conditions may differ.
Columns and labels:
TCR [1] = experiment: Functional CD3 kappa assay: TCR expression on CD4+ PBMCs from healthy donors (antibody staining); assay type: cell-based, human; conditions: for TCR-expression: CD4+ cells from three healthy donors, FIG. 2A
Protocol: (§1) Heparinized full blood was layered on room-temperature LSM (density: 1.077 g/ml, Cambrex, Verviers, Belgium). After centrifugation at 400 g at 20° C. for 30 minutes, the interphase cells were isolated. The cells were washed twice with 50 ml PBS containing 2 mM EDTA and centrifuged at 300 g for 10 minutes at 20° C. The cell-pellet was resuspended in RPMI supplemented with 10% autologous serum, Pen/Strep, Gentamycin, Pyruvate, Hepes-buffer and L-Glutamine (Cambrex).
(§2) CD3 kappa or the control peptide was solubilized in RPMI with 1% human serum albumin (HSA, Calbiochem, Schwalbach, Germany) and 100 μM β-mercaptoethanol (β-ME, Invitrogene) at 10 mg/ml. PBMCs were incubated at 10^6 cells/ml with either peptide in the same medium and stained after on wash step with PBS with various antibodies (BD).
We synthesized the resulting 42 amino acids polypeptide without the signal sequence resulting in the CD3 kappa peptide having the amino acid sequence according to SEQ ID NO:4. All following experiments were performed with freshly isolated PBMCs from healthy donors in the presence of the 42-mer CD3-kappa or of a control peptide (consisting of the same amino acid composition and length but with a random sequence). […] The control peptide had no effect on TCR expression. Concentrations up to 1 mg/ml CD3-kappa induced a maximal response after 24 h resulting in a six fold upregulation of the TCR.

CD4 = experiment: Functional CD3 kappa assay: CD4 expression on PBMCs from healthy donors; assay type: cell-based, human; conditions: over 6 d, FIG. 2B
Protocol: as §1, §2
The TCR-expression level was stabilized after treatment with CD3-kappa in a majority of the CD4 cells, while untreated cells quickly converted to a low TCR expression state. Only at day 6 did the CD3-kappa treated cells show a decline in TCR expression.

PBMCs [2] = experiment: Protein microarrays (human cytokine micro arrays 6.1 and 7.1) of secreted factors in culture supernatant; assay type: cell-based; conditions: for amount of EGF in the supernatant / amount of Eotaxin-2 in the supernatant / amount of GRO in the supernatant / amount of I-309 in the supernatant / amount of IFNγ in the supernatant / amount of IL-1ra in the supernatant / amount of IL-1α in the supernatant / amount of IL-1β in the supernatant / amount of IL-3 in the supernatant / amount of IL-6 in the supernatant / amount of IL-8 in the supernatant / amount of MCP-4 in the supernatant / amount of NAP-2 in the supernatant / amount of PARC in the supernatant / amount of RANTES in the supernatant / amount of SDF-1 in the supernatant / amount of TARC in the supernatant / amount of TGFβ3 in the supernatant / amount of soluble IL-6 Receptor in the supernatant / amount of soluble TNF-Receptor II in the supernatant: FIGS. 3b and 3c
Protocol: All reagents were from Raybiotech (Hilden, Germany). 2 ml supernatant from cultures with 5×10^6 cells/ml was mixed with blocking buffer (BB) and pipetted to blocked human cytokine micro arrays 6.1 and 7.1. After overnight incubation, the membranes were washed three times with wash buffer I and two times with wash buffer II. Anti-cytokine antibodies were added in 2 ml BB. After incubation and wash as described above, 2 ml streptavidin-HRP was added. Again after incubation and wash as described above, detection solution was added and exposure for 18 h to X-ray films were performed.

PBMCs [3] = experiment: Functional CD3 kappa assay: cell surface markers and cytokine/chemokine receptors on PBMCs; assay type: cell-based, human; conditions: after six days; for expression of CD25 / expression of CD116: FIGS. 4a/4b
Protocol: as §1, §2

TCR [4] = experiment: TCR expression in PBMCs from patients recovering from T-cell toxic chemotherapy (fludarabine); assay type: cell-based, human
Protocol: as §2
CD3 zeta is synthesized at about 10% of the rate as the other CD3-complex proteins being the limiting component for a correct assembly of the CD3/TCR complex. A maximal upregulation of CD3 zeta can therefore result in a 10-fold upregulation of the TCR. The higher capability of CD3 kappa to upregulate the surface TCR expression might be explained with a reduced need of some of the CD3-complex components.

[5] = peripheral blood mononuclear cells, in vitro

SESVNISTNVNRFHTFPYCEIAEVSCRSKVRIELDLQSPESS (MISC_FEATURE: synthetic) [control peptide, reference compound]
TCR-expression (TCR [1]; after 24 h): no effect

SQVSPFKIPIEELEDRVFVNCNTSIYRASSLSN CRHTSSVEE (SQVSPFKIPIEELEDRVFVNCNTSIYRASSLSNCRHTSSVEE) [CD3 kappa, 42 amino acid long synthesized peptide, splice variant of CD3 delta without the signal peptide]
CD4 expression (CD4): up-regulation | amount of EGF in the supernatant (PBMCs [2]): increased release | amount of Eotaxin-2 in the supernatant (PBMCs [2]): increased release | amount of GRO in the supernatant (PBMCs [2]): decreased release | amount of I-309 in the supernatant (PBMCs [2]): increased release | amount of IFNγ in the supernatant (PBMCs [2]): increased release | amount of IL-1ra in the supernatant (PBMCs [2]): decreased release | amount of IL-1α in the supernatant (PBMCs [2]): increased release | amount of IL-1β in the supernatant (PBMCs [2]): increased release | amount of IL-3 in the supernatant (PBMCs [2]): increased release | amount of IL-6 in the supernatant (PBMCs [2]): increased release | amount of IL-8 in the supernatant (PBMCs [2]): decreased release | amount of MCP-4 in the supernatant (PBMCs [2]): decreased release | amount of NAP-2 in the supernatant (PBMCs [2]): increased release | amount of PARC in the supernatant (PBMCs [2]): increased release | amount of RANTES in the supernatant (PBMCs [2]): decreased release | amount of SDF-1 in the supernatant (PBMCs [2]): decreased release | amount of TARC in the supernatant (PBMCs [2]): decreased release | amount of TGFβ3 in the supernatant (PBMCs [2]): increased release | amount of soluble IL-6 Receptor in the supernatant (PBMCs [2]): decreased release | amount of soluble TNF-Receptor II in the supernatant (PBMCs [2]): decreased release | amount of EGF in the supernatant (PBMCs [2]; listed as CD3-kappa): increased | amount of Eotaxin-2 in the supernatant (PBMCs [2]; listed as CD3-kappa): increased | amount of GRO in the supernatant (PBMCs [2]; listed as CD3-kappa): decreased | amount of I-309 in the supernatant (PBMCs [2]; listed as CD3-kappa): increased | amount of IFNγ in the supernatant (PBMCs [2]; listed as CD3-kappa): increased | amount of IL-1ra in the supernatant (PBMCs [2]; listed as CD3-kappa): decreased | amount of IL-1α in the supernatant (PBMCs [2]; listed as CD3-kappa): increased | amount of IL-1β in the supernatant (PBMCs [2]; listed as CD3-kappa): increased | amount of IL-3 in the supernatant (PBMCs [2]; listed as CD3-kappa): increased | amount of IL-6 in the supernatant (PBMCs [2]; listed as CD3-kappa): increased | amount of IL-8 in the supernatant (PBMCs [2]; listed as CD3-kappa): decreased | amount of MCP-4 in the supernatant (PBMCs [2]; listed as CD3-kappa): decreased | amount of NAP-2 in the supernatant (PBMCs [2]; listed as CD3-kappa): increased | amount of PARC in the supernatant (PBMCs [2]; listed as CD3-kappa): increased | amount of RANTES in the supernatant (PBMCs [2]; listed as CD3-kappa): decreased | amount of SDF-1 in the supernatant (PBMCs [2]; listed as CD3-kappa): decreased | amount of TARC in the supernatant (PBMCs [2]; listed as CD3-kappa): decreased | amount of TGFβ3 in the supernatant (PBMCs [2]; listed as CD3-kappa): increased | amount of soluble IL-6 Receptor in the supernatant (PBMCs [2]; listed as CD3-kappa): decreased | amount of soluble TNF-Receptor II in the supernatant (PBMCs [2]; listed as CD3-kappa): decreased | duration of the changes in secretion (PBMCs [2]; [5]): up to eight | time after addition at which the changes in secretion occur (PBMCs [2]; [5]): about 24 h | expression of CD2 (PBMCs [3]; FIG. 3a): up-regulation | expression of CD58 (PBMCs [3]; FIG. 3a): down regulated | expression of CD127 (PBMCs [3]; FIG. 3a): up-regulation | expression of CD2 (PBMCs [3]; FIG. 3a, listed as CD3-kappa): increase | expression of CD127 (PBMCs [3]; FIG. 3a, listed as CD3-kappa): increase | expression of CD38 (PBMCs [3]; FIG. 4a): not changed | expression of CD44 (PBMCs [3]; FIG. 4a): not changed | expression of CD45RA (PBMCs [3]; FIG. 4a): not changed | expression of CD45RO (PBMCs [3]; FIG. 4a): not changed | expression of CD62L (PBMCs [3]; FIG. 4a): not changed | expression of CD95 (PBMCs [3]; FIG. 4a): not changed | expression of HLA-ABC (PBMCs [3]; FIG. 4a): not changed | expression of HLA-DR, DP, DQ (PBMCs [3]; FIG. 4a): not changed | expression of LAIR (PBMCs [3]; FIG. 4a): not changed | non-T-cell markers (PBMCs [3]; FIG. 4a): not affected | expression of CCR3 (PBMCs [3]; FIG. 4b): up-regulation | expression of CCR9 (PBMCs [3]; FIG. 4b): up-regulation | expression of CXCR1 (PBMCs [3]; FIG. 4b): up-regulation | expression of CXCR3 (PBMCs [3]; FIG. 4b): slight upregulation | expression of CXCR4 (PBMCs [3]; FIG. 4b): slight upregulation | expression of CCR3 (PBMCs [3]; FIG. 4b, listed as CD3-kappa): increase | expression of CCR9 (PBMCs [3]; FIG. 4b, listed as CD3-kappa): increase | expression of CXCR1 (PBMCs [3]; FIG. 4b, listed as CD3-kappa): increase | expression of CD25 (PBMCs [3]): up-regulation | expression of CD116 (PBMCs [3]): up-regulation | expression of CD25 (PBMCs [3]; listed as CD3-kappa): increase | expression of CD116 (PBMCs [3]; listed as CD3-kappa): increase | decreased TCR expression of patients after treatment (TCR [4]; PBMCs / T lymphocytes from patients with decreased TCR expression, compared with healthy individuals): restored to normal levels; also recorded: increased in a statistically significant manner | TCR upregulation (TCR [4]; PBMCs from patients recovering from fludarabine treatment, after 48 h treatment, FIG. 5): 25 fold | concentration giving detectable TCR-upregulation (TCR [1]; CD4+ cells from healthy donors, 24 h): ≥ 0.1 mg/mL | TCR-expression (TCR [1]; after 24 h): concentration dependent increase | TCR expression over time (TCR [1]; PBMCs / CD4 cells, over the next 6 days, FIG. 2B): remarkable and sustained increase; also recorded: stabilized | upregulation of the TCR (maximal response) (TCR [1]; PBMCs from healthy donors, up to 1 mg/ml, after 24 h): six | influence of stimulation with PMA and ionomycin on the TCR increase (TCR [1]; cells stimulated with PMA and ionomycin): did not affect this finding | TCR expression at day 6 (TCR [1]; day 6): decline
